The record followed here is patent publication US20200281937A1, “USL-311 FOR USE IN THE TREATMENT OF CANCER” (Proximagen, LLC, priority 2017, published 2020).

Holding throughout (format): in vivo
One experiment concerns EMT-6 (breast cancer). Kind of experiment: Syngeneic subcutaneous tumour growth inhibition, EMT-6. The conditions noted are these: EMT6 s.c. tumour in mice, 50 mg/kg p.o. 5 days out of 7, vs vehicle group. How it is done:
(§1) Nine syngeneic cell lines from […] different cancer types (EMT-6 (breast cancer), MBT2 (bladder cancer), CT26 (colorectal cancer), B16F10small, B16BL6 (both melanoma), A20 (lymphoma), LL/2 (lung cancer), Renca (kidney cancer), H22 (liver cancer)) were cultured and when in exponential growth were inoculated in mice subcutaneously with tumour cells in 0.1 mL of PBS for tumour development. After the mean tumour size reached approximately 80-120 mm^3 the mice were treated with 6-{4-[1-(Propan-2-yl)piperidin-4-yl]-1,4-diazepan-1-yl}-N-(pyridin-4-yl)pyridine-2-carboxamide (50 mg/kg p.o. 5 days out of 7). Tumour volumes were measured twice weekly at least in two dimensions using a caliper, and the volume expressed in mm^3 using the formula: V=0.5 a×b^2 where a and b are the long and short diameters of the tumour, respectively. Tumour growth was measured and inhibition of tumour growth reported in comparison to a vehicle treated group. All groups contained 8 mice. If the tumours in a group reached an average volume of 2000 mm^3, the experiment was terminated.

The subject of the next experiment is MBT2 (bladder cancer). Kind of experiment: Syngeneic subcutaneous tumour growth inhibition, MBT2. The conditions noted are these: MBT2 s.c. tumour in mice, 50 mg/kg p.o. 5 days out of 7, vs vehicle group. Here is the method:
as §1

A further experiment relates to CT26 (colorectal cancer). Put plainly: Syngeneic subcutaneous tumour growth inhibition, CT26. The conditions noted are these: CT26 s.c. tumour in mice, 50 mg/kg p.o. 5 days out of 7, vs vehicle group. How it is done: as §1
The next experiment has as its system B16F10small (melanoma). Kind of experiment: Syngeneic subcutaneous tumour growth inhibition, B16F10small. The conditions noted are these: B16F10small s.c. tumour in mice, 50 mg/kg p.o. 5 days out of 7, vs vehicle group. Here is the method:
as §1

The test system of another experiment is B16BL6 (melanoma). Kind of experiment: Syngeneic subcutaneous tumour growth inhibition, B16BL6. The conditions noted are these: B16BL6 s.c. tumour in mice, 50 mg/kg p.o. 5 days out of 7, vs vehicle group. How it is done: as §1
The subject of a further experiment is A20 (lymphoma). Kind of experiment: Syngeneic subcutaneous tumour growth inhibition, A20. The conditions noted are these: A20 s.c. tumour in mice, 50 mg/kg p.o. 5 days out of 7, vs vehicle group. How it is done:
as §1

The next experiment relates to LL/2 (lung cancer). Put plainly: Syngeneic subcutaneous tumour growth inhibition, LL/2. The conditions noted are these: LL/2 s.c. tumour in mice, 50 mg/kg p.o. 5 days out of 7, vs vehicle group. Here is the method: as §1
Another experiment relates to Renca (kidney cancer). Kind of experiment: Syngeneic subcutaneous tumour growth inhibition, Renca. The conditions noted are these: Renca s.c. tumour in mice, 50 mg/kg p.o. 5 days out of 7, vs vehicle group. How it is done:
as §1

Another experiment relates to H22 (liver cancer). Put plainly: Syngeneic subcutaneous tumour growth inhibition, H22. The conditions noted are these: H22 s.c. tumour in mice, 50 mg/kg p.o. 5 days out of 7, vs vehicle group. How it is done: as §1

Turning to `CC(C)N1CCC(N2CCCN(c3cccc(C(=O)Nc4ccncc4)n3)CC2)CC1` [6-{4-[1-(Propan-2-yl)piperidin-4-yl]-1,4-diazepan-1-yl}-N-(pyridin-4-yl)pyridine-2-carboxamide], the “% inhibition of tumour growth relative to control” value is on record as 79.8% in the experiment on EMT-6 (breast cancer); 29.3% with MBT2 (bladder cancer); 32.1% in the experiment with CT26 (colorectal cancer); 0% with B16F10small (melanoma); 0% in the experiment with B16BL6 (melanoma); 11.6% with A20 (lymphoma). The figures for the “% inhibition of tumour growth relative to control” value in the experiment on LL/2 (lung cancer), with Renca (kidney cancer) and with H22 (liver cancer) were 7.8%, 0% and 20.1%, respectively.
